Paper PMC9054876 (Cancer Chemotherapy and Pharmacology, 2022)

Assays:
[1] = cited from earlier work
[2] = parameters: method as in PMID 32562690; details: cited from earlier work
[3] = high-fat meal, healthy participants; cited from earlier work
[4] = oral, cited from earlier work
[5] = Bootstrap-derived secondary PK parameters, forest plots and model-based simulation
Source text: (§1) The association or lack of association between the observed covariates and model-derived secondary PK parameters [e.g., area under the concentration–time curve over the dosing interval at steady state (AUCτ,ss)] for patients with cancer was illustrated using bootstrap analysis-based forest plots (see ESM 1 for method details). In the bootstrap analysis, N = 100 new data sets were generated with replacement from the analysis data set. The sampling was stratified by study, and the final models were fit to each of the resampled data sets. […] For categorical covariates, the mean and its 5th and 95th percentiles of PK parameters for each category were computed. For continuous covariates, the mean and its 5th and 95th percentiles of PK parameters, corresponding to the 0–5th and 95–100th percentile of the covariate, were computed. The impact of the covariates in the forest plots were presented on a relative scale. The reference value was the arithmetic mean of the corresponding PK parameter.
(§2) The derivation of these secondary PK parameters is based on a bootstrap analysis (see following). Only participants with at least one observation above the lower limit of quantitation in the analysis data set were included in the derivation of the secondary parameters.
(§3) In the bootstrap analysis, N = 100 new data sets (with the participants in the analysis data sets with at least one observation with the same number of participants as in the analysis data sets) were drawn with replacement from the analysis data sets. The sampling was stratified by study. The final models were fit to each of the resampled data sets.
(§4) For each of the N = 100 population parameter vectors, the n observed covariate vectors were used to predict the corresponding n primary and secondary parameters, where n = the unique combination of ID and the time-varying variables formulation, μ-opioids and dose (while National Cancer Institute Organ Dysfunction Group (NCI-ODG) class was handled as a time-varying covariate in the stepwise covariate method (SCM), its baseline value was used in the derivation of the forest plots since NCI-ODG class is derived from total bilirubin, alanine aminotransferase and aspartate aminotransferase, which were also assumed to be time-constant in the forest plot).
(§5) Descriptive statistics (mean, standard deviation and the 5th and 95th percentiles) were calculated for the n secondary parameters. These summary statistics are the bootstrap estimates of the typical individual value, standard error, and 90% confidence interval of the secondary parameters.

[6] = cited from earlier work; remark: listed apart in the source
clinical [7] = details: for CLpar: typical individual, 500 mg
Source text: This step included food status, formulation, and oral dose level.
In the second step, the remaining covariates were further evaluated, including demographics (age, body weight, race, and sex), patient characteristics (disease status, i.e., patient or healthy participant, tumor type, National Cancer Institute Organ Dysfunction Working Group [NCI-ODWG] classification of liver impairment, and baseline tumor burden), laboratory values (serum albumin, total bilirubin, alkaline phosphatase, international normalized ratio, and total protein), and co-medications (opioid analgesics and gefitinib).
SCM was applied in the structural covariate model building step, followed by an adaptive scope reduction (ASR) SCM in the following covariate searching step to reduce run times. For the SCM procedures, the forward selection p value was set to 0.01, and the backward elimination p value to 0.001. The ASR threshold p value was set to the same as the forward p value of 0.01.
Continuous covariate relationships were coded as power models (Formula 1), and categorical covariates were coded as a fractional difference to the most common category (Formula 2). An alternative ‘hockey-stick’ parameterization (Formula 3) was tested for dose as continuous covariate on bioavailability of the parent drug (Par).1 ParCovm=Cov/Covref^θm 2 ParCovm=1ifCov=Covref1+θmifCov≠Covref 3 ParCovm=1+θm1·Cov-CovrefifCov≤Covref1+θm2·Cov-CovrefifCov>Covref
Model selection and qualification was based on the changes in the objective function value (OFV) provided by NONMEM and the visual inspection of graphical diagnostics, including goodness-of-fit plots and visual predictive checks (VPCs).
The population PK analyses were performed using NONMEM version 7.3.0. Data management and further processing of NONMEM output were performed using R version 3.3.3. VPCs and covariate model building were run on PsN version 4.4.8.
The IIV terms are included on CLpar, first-order absorption rate constant (ka), zero-order absorption duration (D1), and bioavailability of parent drug (Fpar).

clinical [8] = details: human, in vivo, po
Source text: as §1, §2, §3, §4, §5

[9] = parameters: method as in manuscript in preparation; details: 500 mg single dose TF2, non-compartmental analysis; ref manuscript in preparation; cited from earlier work
[10] = bootstrap predicted, cancer patients
[11] = bootstrap predicted, cancer patients, 250 mg/day
[12] = CF1 vs typical participant taking TF2 with a non-high-fat meal
[13] = fasting vs typical participant taking TF2 with a non-high-fat meal
[14] = final model, reference patient, multiplied by 0.9
[15] = fractional difference to reference category

CN1CCC(COc2cnc(-c3cccc(Cn4nc(-c5cccc(C#N)c5)ccc4=O)c3)nc2)CC1 [Tepotinib]
effect of co-administration of tepotinib with gefitinib on exposure [1]: no effect
solubility [2]: low-solubility
increase in tepotinib exposure in the presence of food [3]: two-fold
time to maximum concentration (Tmax) ([4]; steady state, fed conditions): approximately 8 h
terminal elimination half-life [4]: approximately 32 h
CLpar, mean ([5]; bootstrap predicted typical individual, cancer patients, multiplied by 0.9): 19.3 L/h
Fpar actual doses, mean [5, 10]: 1.12
Tss (time to steady-state), mean [5, 10]: 128.3 h
t1/2eff (effective half-life), mean [5, 10]: 32.1 h
Fpar 250 mg, mean ([5]; bootstrap predicted, cancer patients, 250 mg): 1.04
C max, ss 250 mg, mean [5, 11]: 683 ng/mL
Ctrough,ss 250 mg, mean [5, 11]: 523 ng/mL
Fpar 500 mg, mean ([5]; bootstrap predicted, cancer patients, 500 mg): 0.94
Ctrough,ss 500 mg, mean ([5]; bootstrap predicted, cancer patients, 500 mg/day): 952 ng/mL
Vss, mean ([5]; bootstrap predicted, cancer patients, multiplied by 0.9): 2,091 L
AUCτ,ss higher in moderate renal impairment ([5]; eGFR 39.4-59 vs mean observed eGFR 99.8 mL/min/1.73 m^2, forest plot): 2%
effect of covariates on tepotinib AUC ([5]; race, hepatic impairment, renal impairment, age, sex, body weight, opioid analgesics or gefitinib, 90% CIs within 80–125%): no or marginal effects
share of administered dose of any single metabolic pathway ([6]; based on in vitro studies and human mass balance data): ≤ 25%
absolute bioavailability [6]: 72%
contribution to total circulating radioactivity [6]: 55%
total radiolabeled material excreted via feces ([6]; mass balance study): 77.9%
urinary excretion recovery ([6]; mass balance study): 13.6%
CF1 covariate on ka (clinical [7]; CF1 vs TF2): –0.442
reduction of Fpar (clinical [7]; [12]): 65.6%
reduction of ka (clinical [7]; [12]): 44.2%
TF1* covariate on ka (clinical [7]; TF1* (finely micronized) vs TF2): 0.674
TF1 covariate on ka (clinical [7]; TF1 vs TF2): 0.305
TF3 covariate on Fpar (clinical [7]; TF3 vs TF2): 0.154
CF1 covariate on Fpar (clinical [7]; capsule formulation 1 (non-micronized) vs TF2): –0.656
influence of gefitinib co-administration on tepotinib PK (clinical [7]; covariate analysis): No statistically significant influence
reduction of Fpar (clinical [7]; [13]): 20.9%
reduction of ka (clinical [7]; [13]): 56.1%
DOSE covariate on Fpar (clinical [7]; final model): –0.0412 /100 mg
D1 (zero-order absorption duration) (clinical [7]; final model, reference patient): 4.09 h
CLpar/F (apparent clearance) (clinical [7]; final model, reference patient, 500 mg TF2, fed non-high-fat meal, multiplied by 0.9 for salt to base): 20.4 L/h
ka (first-order absorption rate constant) (clinical [7]; final model, reference patient, TF2, fed non-high-fat meal): 0.278 h⁻¹
Qpar/F (clinical [7]; [14]): 1.32 L/h
Vp,par/F (clinical [7]; [14]): 1180 L
Vc,par/F (clinical [7]; final model, reference patient, multiplied by 0.9 for salt to base): 1020 L
Colorectal cancer covariate on CLpar/F (clinical [7]; fractional difference): –0.281
Hepatocellular carcinoma covariate on CLpar/F (clinical [7]; fractional difference): 0.130
NCI-ODG class > 0 covariate on Fpar (clinical [7]; fractional difference): –0.0729
Non-small cell lung cancer covariate on Vc,par/F (clinical [7]; fractional difference): –0.232
Patient/participant covariate on Vp,par/F (clinical [7]; fractional difference): –0.810
Study MS200095-0028 covariate on CLpar/F (clinical [7]; fractional difference): –0.115
μ-Opioids covariate on CLpar/F (clinical [7]; fractional difference): –0.167
Fasting state covariate on D1 (clinical [7]; [15]): –0.370
Fasting state covariate on Fpar (clinical [7]; [15]): –0.209
Fasting state covariate on ka (clinical [7]; [15]): –0.561
High-fat meal covariate on Fpar (clinical [7]; [15]): 0.320
half-life (clinical [7]; human, in vivo): ~1920 min
exposure increase between 500 and 1400 mg (clinical [7]; mostly CF2, Study 001): doubling
reduction of bioavailability by liver dysfunction (NCI-ODWG) (clinical [7]; oral administration): 7.29%
Age covariate on Vc,par/F (clinical [7]; power model): 0.219
Body weight at baseline covariate on Fpar (clinical [7]; power model): –0.475
INR at baseline covariate on Qpar/F (clinical [7]; power model): 3.81
Serum albumin at baseline covariate on Qpar/F (clinical [7]; power model): 4.14
eGFR at baseline covariate on CLpar/F (clinical [7]; power model): 0.199
time dependence of PK (clinical [7]; single dose vs steady state): time-independent
CLpar (clinical [7]; eGFR 30 mL/min/1.73 m^2): 16.2 L/h
CLpar (clinical [7]; eGFR 60 mL/min/1.73 m^2): 18.6 L/h
CLpar (clinical [7]; eGFR 80 mL/min/1.73 m^2): 19.7 L/h
CLpar (clinical [7]; eGFR 110 mL/min/1.73 m^2): 20.9 L/h
dose proportionality of PK (clinical [7]; up to the therapeutic dose of 500 mg): approximately dose-proportional
AUC (clinical [8]; 250 mg/day): 12300 ng·h/mL
half-life (clinical [8]; 500 mg): 4.24 days
AUC (clinical [8]; 500 mg/day): 22300 ng·h/mL
Cmax (clinical [8]; 500 mg/day): 1240 ng/mL
total plasma AUC lower in moderate hepatic impairment than healthy participants [9]: 13%

COc1cc2ncnc(Nc3ccc(F)c(Cl)c3)c2cc1OCCCN1CCOCC1 [gefitinib, reference compound]
effect of co-administration of tepotinib with gefitinib on exposure [1]: no effect
